Experimental findings from paper PMC6291527, “A Nanostructured Lipid System to Improve the Oral Bioavailability of Ruthenium(II) Complexes for the Treatment of Infections Caused by Mycobacterium tuberculosis” (Frontiers in Microbiology, 2018) are described below.

Assay in all cases: microbe, parasite or virus in culture
Format in all cases: cell-based, Mycobacterium tuberculosis

Test [1] concerns M. tuberculosis clinical isolate CF158. Conditions: for MIC90: Mycobacterium tuberculosis, read-out: MIC90 of the Compounds, isolate CF158; for MIC90 of the Compounds, isolate CF158: REMA, CF158 resistant to INH and RIF, NL = not loaded (DMSO), L = loaded into NLS.
Test [2] concerns M. tuberculosis clinical isolate CF169. Particulars: for MIC90: Mycobacterium tuberculosis, read-out: MIC90 of the Compounds, isolate CF169; for MIC90 of the Compounds, isolate CF169: REMA, CF169 resistant to INH and RIF, NL = not loaded (DMSO), L = loaded into NLS.
Test [3] relates to M. tuberculosis clinical isolate CF100. Conditions: for MIC90: Mycobacterium tuberculosis, read-out: MIC90 of the Compounds, isolate CF100; for MIC90 of the Compounds, isolate CF100: REMA, CF100 resistant to INH, NL = not loaded (DMSO), L = loaded into NLS.

In brackets after ≈: the same amount, converted by molar mass.

Consider `CC1COc2c(N3CCN(C)CC3)c(F)cc3c(=O)c(C(=O)O)cn1c23` (stereo not shown) [OFL, ofloxacin], for which the MIC90 amounted to 0.7 µg/mL (≈ 1.94 µM) in test [1], 11.5 µg/mL (≈ 31.8 µM) in test [2] and 0.9 µg/mL (≈ 2.49 µM) in test [3].

On to `NCC[C@H](O)C(=O)N[C@@H]1C[C@H](N)[C@@H](O[C@H]2O[C@H](CN)[C@@H](O)[C@H](O)[C@H]2O)[C@H](O)[C@H]1O[C@H]1O[C@H](CO)[C@@H](O)[C@H](N)[C@H]1O` [AMI, amikacin], for which the MIC90 in test [1] was determined as 0.6 µg/mL (≈ 1.02 µM); in test [2], 0.6 µg/mL (≈ 1.02 µM); in test [3], 0.7 µg/mL (≈ 1.2 µM).

As to `CO[C@H]1/C=C/O[C@@]2(C)Oc3c(C)c(O)c4c(O)c(c(/C=N/N5CCN(C)CC5)c(O)c4c3C2=O)NC(=O)/C(C)=C\C=C\[C@H](C)[C@H](O)[C@@H](C)[C@@H](O)[C@@H](C)[C@H](OC(C)=O)[C@@H]1C` [RIF, rifampicin], in test [1], the MIC90 is above 50 µg/mL and the “MIC90 of the Compounds, isolate CF158” value was above 50 µg/mL. Further, in test [2], the MIC90 is above 50 µg/mL and the “MIC90 of the Compounds, isolate CF169” value was above 50 µg/mL. Besides, in test [3], the MIC90 is below 0.195 µg/mL.

For [Ru(pic)(dppb)(phen)]PF6 [SCAR4], in test [1], the “MIC90 of the Compounds, isolate CF158” value was found to be 2.7 µg/mL. Also, the “MIC90 of the Compounds, isolate CF169” value in test [2] was 3.0 µg/mL. Also, in test [3], the “MIC90 of the Compounds, isolate CF100” value came to 5.4 µg/mL.

On to [Ru(pic)(dppb)(bipy)]PF6 [SCAR1], for which, in test [1], the “MIC90 of the Compounds, isolate CF158” value is 2.6^∗ μg mL^-1. The “MIC90 of the Compounds, isolate CF169” value in test [2] is 2.9^∗ μg mL^-1. For the same compound, the “MIC90 of the Compounds, isolate CF100” value in test [3] turned out to be 10.9 µg/mL.

As to `NNC(=O)c1ccncc1` [INH, isoniazid], in test [1], the MIC90 was above 50 µg/mL and the “MIC90 of the Compounds, isolate CF158” value was above 50 µg/mL. In addition, in test [2], the MIC90 is above 50 µg/mL. In test [3], the MIC90 was above 50 µg/mL and the “MIC90 of the Compounds, isolate CF100” value is above 50 µg/mL.

Consider `F[P-](F)(F)(F)(F)F.O=C([O-])c1ccccn1.[Ru+2].c1ccc(P(CCP(c2ccccc2)c2ccccc2)c2ccccc2)cc1.c1ccc(P(CCP(c2ccccc2)c2ccccc2)c2ccccc2)cc1` [SCAR5, cis-[Ru(pic)(dppe)2]PF6], for which the “MIC90 of the Compounds, isolate CF158” value in test [1] is 2.9^∗ μg mL^-1. Also, the “MIC90 of the Compounds, isolate CF169” value in test [2] is recorded as 2.9^∗ μg mL^-1. For the same compound, in test [3], the “MIC90 of the Compounds, isolate CF100” value is 5.1 µg/mL.

As to `NC[C@@H]1O[C@@H](O[C@H]2[C@H](O)[C@@H](O[C@H]3O[C@H](CO)[C@@H](O)[C@H](N)[C@H]3O)[C@H](N)C[C@@H]2N)[C@@H](O)[C@H](O)[C@H]1O` [KAN], the “MIC90 of the Compounds, isolate CF158” value in test [1] was 2.8 µg/mL. In test [2], the “MIC90 of the Compounds, isolate CF169” value is 1.5 µg/mL. Further, the “MIC90 of the Compounds, isolate CF100” value in test [3] stood at 7.8 µg/mL.

As for `Cc1ccnc(-c2cc(C)ccn2)c1.F[P-](F)(F)(F)(F)F.O=C([O-])c1ccccn1.[Ru+2].c1ccc(P(CCCCP(c2ccccc2)c2ccccc2)c2ccccc2)cc1` [SCAR2, [Ru(pic)(dppb)(Me-bipy)]PF6], in test [1], the “MIC90 of the Compounds, isolate CF158” value is 1.6^∗ μg mL^-1. For the same compound, in test [2], the “MIC90 of the Compounds, isolate CF169” value was 2.6^∗ μg mL^-1. The “MIC90 of the Compounds, isolate CF100” value in test [3] was determined as 5.7 µg/mL.

Turning to [Ru(pic)(dppe)(phen)]PF6 [SCAR7], in test [1], the “MIC90 of the Compounds, isolate CF158” value was 3.0 µg/mL. The “MIC90 of the Compounds, isolate CF169” value in test [2] is 4.4 µg/mL. The “MIC90 of the Compounds, isolate CF100” value in test [3] is listed as 7.3^∗ μg mL^-1.

Take `COc1c(N2CCNC(C)C2)c(F)cc2c(=O)c(C(=O)O)cn(C3CC3)c12` (stereo not shown) [GAT, gatifloxacin]: the MIC90 in test [1] was 0.2 µg/mL (≈ 0.533 µM); in test [2] it was 1.2 µg/mL (≈ 3.2 µM); in test [3], 0.5 µg/mL (≈ 1.33 µM).
